Assay results: publication PMC5291098, “Molecular mutagenesis of ppGpp: turning a RelA activator into an inhibitor” (Scientific Reports, 2017)
“Also recorded” adds a separate entry of the source.

Tests used:
[1] = tested on: T1, E. coli EF-G; format: biochemical; settings: up to 1 mM
T1 construct: made in house
Procedure: Thin layer chromatography (TLC) analysis of nucleotide mixtures
Both EF-G GTPase reaction and ppGpp synthesis by RelA were followed by TLC analysis followed by scintillation counting according to Mechold and colleagues, with modifications1. Time points from the reaction mixtures (5 μl, see below for details) were quenched by addition 4 μl 70% formic acid supplemented with a cold nucleotide standard used for UV-shadowing (10 mM GDP and 10 mM GTP) and spotted on PEI-TLC plates (Macherey-Nagel). TLC was run in buffer, plates dried, cut into sections guided by UV-shadowing and 3H radioactivity was quantified by scintillation counting in Optisafe-3 (Fisher) scintillation cocktail on Perkin Elmer Tricarb 2810TR counter. Conversion of substrate to product was quantified as described in Shyp et al. (2012)2. […]
GTPase assays with E. coli EF-G
The reaction mixture contained 0.5 μM 70S, 0.1 μM EF-G, in HEPES:Polymix (25 mM Hepes 7.5/ 1 mM DTT / 5 mM Mg2+) pre-incubated for 2 minutes at 37°C prior to addition of 300 μM [3H]GTP substrate (Hartman), after which time points (5 μl) taken, quenched with formic acid and analyzed by TLC (see above). […]

[2] = tested on: T2, RelA binding to 70S initiation complexes; assay: Spin down assay of RelA binding to 70S initiation complexes; set-up: species or system Escherichia coli; settings: 500 μM compound; 2 μM RelA, 1 μM 70S IC programmed with mRNA(MF), with or without tRNAPhe
T2 construct: made in house
Procedure: Figure 4 Functional studies of DR-M014 and DR-4250 with programmed ribosomal complexes. (a,b) Inhibition of RelA activated by starved ribosomal complexes containing deacylated A-site tRNA^Phe. The reaction mixture contained 30 nM RelA, 0.5 μM 70S, 2 μM tRNA^Phe, 2 μM tRNAi^Met, 2 μM mRNA(MF), 100 μM ppGpp, 0.3 mM [^3H] GDP and 1 mM ATP. The experiments were performed in HEPES:Polymix buffer with 5 mM Mg^2+. Error bars represent standard deviations of linear regression estimates, each experiment was performed at least three times. […] Reaction mixture containing combinations of 2 μM RelA, 1 μM 70S initiation complexes programmed with mRNA(MF), 3 μM deacylated tRNA^Phe and test compounds at 500 μM was preincubated at 37 °C for 15 minutes prior to loading 50 μl samples on top of a 50 μl 30% sucrose cushion. After centrifugation for 25 minutes (70,000 r.p.m. at 12 °C) the supernatants were quickly aspirated, the pellets resuspended in 20 μl of SDS loading buffer, and the proteins resolved on 10% SDS-PAGE gel.
The ppGpp-analogues reported earlier promote RelA association with 70S ribosome[25][26] and are, therefore, promising tools for generating stable 70S:RelA complexes for structural investigations. […]
3', 300 μM 3H-GDP, 100 μM ppGpp was pre-incubated at 37° C for 2 min and then reaction started by addition of 1 mM ATP, time points (5 μl) taken, quenched with formic acid and analyzed by TLC. […]

Structure (SMILES)	Inhibitory effect on EF-G GTPase activity (in words) [1]	Effect on RelA binding to 70S initiation complexes (in words) [2]
Nc1nc2c(ncn2C2CCN(C(=O)P(=O)(O)O)CC2)c(=O)[nH]1 [DR-M014]	no inhibitory effect	promote RelA binding to 70S initiation complexes; also recorded: significantly promotes RelA binding
Nc1nc2c(ncn2C2OC(COP(=O)(O)OCP(=O)(O)O)C(OP(=O)(O)OCP(=O)(O)O)C2O)c(=O)[nH]1 (stereo not drawn) [DR-4250, Guanosine 3’,5’-di(phosphonomethoxyphosphate)]	no inhibitory effect	–
